From patent US10914725B2, “Culture medium additive, culture medium composition, and method for culturing cells or tissue using same” (NISSAN CHEMICAL INDUSTRIES, LTD., priority 2015, dated 2021) come the findings set out here.

What all share (type): cell-based
Data set [1] deals with human ovarian cancer cell line SKOV3. The data set can be described thus: Cell proliferation test by dispersing SKOV3 cells with growth factors (Experimental Example 4). The conditions noted are these: 10 days. The procedure:
By a method similar to the preparation method of medium composition in Analysis Example 1, a medium composition containing 10 (v/v) % FBS, and 0.03 (w/v) % of low-molecular agar in DMEM (manufactured by Wako Pure Chemical Industries, Ltd.) was prepared.
Then, human ovarian cancer cell line SKOV3 (manufactured by DS PHARMA BIOMEDICAL CO., LTD.) was suspended in the above-mentioned medium composition containing low-molecular agar at 37,000 cells/mL, and dispensed to the wells of a 96 well flat plane ultra-low attachment surface microplate (manufactured by Corning Incorporated, #3474) at 135 μL per 1 well. The plate was stood in a CO2 incubator (37° C., 5% CO2), and a growth factor was added the next day. A similar operation was performed with 10 (v/v) % FBS-containing DMEM free of low-molecular agar. As a growth factor, human heparin bindability epithelial cell growth factor (hHB-EGF) (manufactured by PeproTech, Inc.) at a final concentration of 30 ng/mL or 100 ng/mL, human epithelial cell growth factor (hEGF) (manufactured by PeproTech, Inc.) and human transforming growth factor α (hTGFα) (manufactured by PeproTech, Inc.) each at a final concentration of 1 ng/mL, 3 ng/mL or 10 ng/mL were added by 15 μL per 1 well.
Successively, the plate was cultured in a standing state in a CO2 incubator (37° C., 5% CO2) for 10 days. As a negative control, DMEM in an amount equal to that of a growth factor was added. CellTiter-Glo Luminescent Cell Viability Assay (manufactured by Promega) (100 μL) was added to the cell culture medium after culturing for 10 days, stood for 10 min at room temperature, and the amount of luminescence was measured by a microplate reader (“FlexStation 3”, manufactured by Molecular Devices) and according to the protocol recommended by Promega. The amount of luminescence of the medium composition alone was subtracted, whereby the number of viable cells was measured.
The relative cell number when the amount of luminescence of the negative control is 1 was determined from the amount of luminescence (corresponding to the number of SKOV3 cells) after culturing for 10 days after the addition of the growth factor, and shown in Table 11.

For data set [2], the system named is Human liver cancer cell line HepG2. As to the kind of experiment: Evaluation of hepatotoxic substance by CellTiter-Glo cell survival assay (Experimental Example 9). To be noted: for IC50: Homo sapiens, HepG2, cell survival assay by luminescence, read-out: 50% inhibitory concentration. Here is the method: (§1) By a method similar to the preparation method of medium composition of Experimental Example 1, a medium composition containing 10 (v/v) % FBS and 0.03 (w/v) % of low-molecular agar (“ultraagar Ena”, manufactured by InaFood Industry) in DMEM (manufactured by Wako Pure Chemical Industries, Ltd.) was prepared. Human liver cancer cell line HepG2 (manufactured by DS PHARMA BIOMEDICAL CO., LTD.) was suspended in the above-mentioned medium composition containing low-molecular agar at 11,000 cells/mL. The above-mentioned cell suspension was dispensed to the wells of a 96 well flat bottom ultra-low attachment surface microplate (manufactured by Corning Incorporated, #3474) at 90 μL per 1 well, and the plate was cultured in a standing state in a CO2 incubator (37° C., 5% CO2) for 3 days. On day 3 of culture, flutamide (manufactured by Sigma-Aldrich) was added by 10 μL per 1 well. Successively, the plate was further cultured in a standing state in a CO2 incubator (37° C., 5% CO2) for 2 days. As a comparison control, HepG2 cells were suspended in DMEM containing 10 (v/v) % FBS and the suspension was dispensed to a 96 well flat bottom adhesion surface microplate (manufactured by Corning Incorporated, #3585), and a similar operation was performed.
CellTiter-Glo Luminescent Cell Viability Assay (manufactured by Promega) (100 μL) was added to the low-molecular agar-containing culture medium and comparison control, the mixture was stood for 10 min at room temperature, and the amount of luminescence was measured by a microplate reader (“FlexStation 3”, manufactured by Molecular Devices) and according to the protocol recommended by Promega. The amount of luminescence of the medium alone was subtracted, whereby the number of viable cells was measured. In addition, 50% inhibitory concentration (μM) of flutamide by the amount of luminescence was calculated with the number of viable cells when flutamide was not added as 0% inhibition rate.
(§2) The number of constituent cells of HepG2 cell spheres, sphere number, projected area of sphere (size) (μm^2) and the dead cell number in the sphere, obtained from the cell imaging analysis, are shown in Table 26. Furthermore, the relative cell number when the amount of luminescence without addition of the anticancer agent is 100 was determined from the measurement results of the surviving cell number by luminescence, using the intracellular ATP as an index, and shown in Table 27. In addition, the 50% inhibitory concentration (μM) of flutamide calculated from the amount of luminescence based on intracellular ATP and constituent cell number obtained by high content analysis are shown in Table 28.
On the technique in general: ATP-based viability assays read luminescence as a measure of living cells.

Data set [3] shares this test system. The data set can be described thus: Evaluation of hepatotoxic substance by high content analysis (Experimental Example 9). To be noted: for average cell number per sphere / average dead cell number in sphere / average sphere number per 20 mm^2 / projected area: 0.03 (w/v)% low-molecular agar medium, 2 days with flutamide. Here is the method:
as §1
Then, a solution of […] of Hoechst 33342 (manufactured by Invitrogen) in DMEM (phenol red, L-glutamine free) (manufactured by Wako Pure Chemical Industries, Ltd.) was prepared, and added, at 10 μL per 1 well, to each culture after static culture for 5 days using the above-mentioned low-molecular agar-containing medium and comparison control, and the mixture was stood in a CO2 incubator (37° C., 5% CO2) for 45 min. Successively, a solution of 20 μg/mL Propidium Iodide (manufactured by BIOMOL) in DMEM (phenol red, L-glutamine free) (manufactured by Wako Pure Chemical Industries, Ltd.) was prepared and added at 10 μL per 1 well, and the culture medium was suspended. The plate was centrifuged at 1,500 rpm for 1 min, and high content analysis was performed by cell image analysis using a cell imaging apparatus (“ArrayScan VTI HCS Reader”, manufactured by Thermo Fisher Scientific). At that time, observation was performed with 20 fields of view per well using a ×10 objective lens, cell outline and cell nucleus were detected from Hoechst33342 fluorescence image, and dead cells were detected from propidium iodide fluorescence image. In addition, 50% inhibitory concentration (μM) of flutamide by high content analysis was calculated from the number of cells constituting the spheres, with the value without addition of flutamide as 0% sphere formation inhibitory rate.
as §2

Turning to “hTGFα: human transforming growth factor α (PeproTech)”, the “relative cell number (negative control = 1)” value in data set [1] (growth factor 1 ng/mL, low-molecular agar 0 (w/v)%) turned out to be 1.448; in data set [1] (growth factor 1 ng/mL, low-molecular agar 0.03 (w/v)%) it was 1.371; in data set [1] (growth factor 3 ng/mL, low-molecular agar 0 (w/v)%), 1.445; in data set [1] (growth factor 3 ng/mL, low-molecular agar 0.03 (w/v)%), 1.916; in data set [1] (growth factor 10 ng/mL, low-molecular agar 0 (w/v)%), 1.512; in data set [1] (growth factor 10 ng/mL, low-molecular agar 0.03 (w/v)%), 2.167.

With `CC(C)C(=O)Nc1ccc([N+](=O)[O-])c(C(F)(F)F)c1` [flutamide], the IC50 in data set [2] (comparison control (DMEM, 10% FBS, adhesion surface plate)) was 51.7 µM; in data set [2] (low-molecular agar containing medium) it was 53.6 µM; in data set [3] (Homo sapiens, HepG2, high content analysis by cell image analysis, number of cells constituting the spheres, low-molecular agar-containing medium, read-out: 50% inhibitory concentration), 73.4 µM. For the same compound, the “relative cell number (no addition = 100)” value in data set [2] (flutamide 0.8 μM, comparison control (DMEM, 10% FBS, adhesion surface plate)) was 100.2; in data set [2] (flutamide 0.8 μM, low-molecular agar-containing medium), 109.6; in data set [2] (flutamide 4 μM, comparison control (DMEM, 10% FBS, adhesion surface plate)), 109.6; in data set [2] (flutamide 4 μM, low-molecular agar-containing medium) it was 98.7; in data set [2] (flutamide 20 μM, comparison control (DMEM, 10% FBS, adhesion surface plate)) it was 93.5; in data set [2] (flutamide 20 μM, low-molecular agar-containing medium), 89.8. Besides, the “relative cell number (no addition = 100)” value is 22.5 in data set [2] (flutamide 100 μM, comparison control (DMEM, 10% FBS, adhesion surface plate)); 22.4 in data set [2] (flutamide 100 μM, low-molecular agar-containing medium); 15.4 in data set [2] (flutamide 500 μM, comparison control (DMEM, 10% FBS, adhesion surface plate)); 8.1 in data set [2] (flutamide 500 μM, low-molecular agar-containing medium). Also, the “average cell number per sphere” value in data set [3] (flutamide 0.8 μM) was 7.977; in data set [3] (flutamide 4 μM), 8.89; in data set [3] (flutamide 20 μM) it was 9.263; in data set [3] (flutamide 100 μM) it was 3.76; in data set [3] (flutamide 500 μM), 1.567. Moreover, the “average dead cell number in sphere” value in data set [3] (flutamide 0.8 μM) stood at 0.06; in data set [3] (flutamide 4 μM) it was 0.037; in data set [3] (flutamide 20 μM), 0.067; in data set [3] (flutamide 100 μM), 0.007; in data set [3] (flutamide 500 μM) it was 1.163. For the same compound, the “average sphere number per 20 mm^2” value stood at 190.7 in data set [3] (flutamide 0.8 μM); 145.3 in data set [3] (flutamide 4 μM); 129.7 in data set [3] (flutamide 20 μM); 153.7 in data set [3] (flutamide 100 μM); 7.3 in data set [3] (flutamide 500 μM). Also, the projected area in data set [3] (flutamide 0.8 μM) came to 1988 μm^2; in data set [3] (flutamide 4 μM), 2180 μm^2; in data set [3] (flutamide 20 μM), 2403 μm^2; in data set [3] (flutamide 100 μM), 861 μm^2; in data set [3] (flutamide 500 μM), 408 μm^2.
